Reference: US20250154169A1, “COMPOUNDS AND METHODS FOR MODULATING SPLICING” (REMIX THERAPEUTICS INC., priority 2021, published 2025)

Tests used:
[1] = tested on: HTT mRNA; experiment: Splicing RT-qPCR assay, HTT canonical (CJ) and alternative (AJ) junction mRNA; format: cell-based, human; settings: Homo sapiens, A673 or K562 cells, 24 hours compound treatment; for IC50: 24 h, read-out: HTT CJ (IC50, decrease in canonical junction mRNA); for AC50: read-out: HTT AJ (AC50, increase in alternative junction mRNA)
In short: (§1)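 A673 or K562 cells were treated 24 h at 37 °C with an 11-point 3-fold compound dilution series (top 10 uM, DMSO ≤0.25%). Lysates went to one-step RT-qPCR measuring canonical (CJ) and alternative-exon (AJ) junction transcripts, normalized to GAPDH, GUSB or PPIA.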

[2] = tested on: MYB mRNA; experiment: Splicing RT-qPCR assay, MYB canonical (CJ) and alternative (AJ) junction mRNA; format: cell-based, human; settings: Homo sapiens, 24 h, A673 or K562 cells, 24 hours compound treatment, RT-qPCR; for AC50: read-out: MYB AJ (AC50, increase in alternative junction mRNA); for IC50: read-out: MYB CJ (IC50, decrease in canonical junction mRNA)
In short: as §1

IC50 [1]	IC50 [2]	Structure (SMILES)	AC50 [1]	AC50 [2]
0.1 to 1 µM	0.1 to 1 µM	Cc1cn2cc(NC(=O)c3ccc(N4CC[C@@H](N5CCOCC5)C4)c4cn(C)nc34)cc(F)c2n1 [Compound 552, N-{8-fluoro-2-methylimidazo[1,2-a]pyridin-6-yl}-2-methyl-4-[(3R)-3-(morpholin-4-yl)pyrrolidin-1-yl]indazole-7-carboxamide]	0.1 to 1 µM	0.1 to 1 µM
> 10 µM	0.1 to 1 µM	C=CCN[C@@H]1CCN(c2ccc(C(=O)Nc3cc(F)c4nc(C)cn4c3)c3nn(C)cc23)C1 [Compound 554, N-{8-fluoro-2-methylimidazo[1,2-a]pyridin-6-yl}-2-methyl-4-[(3R)-3-(prop-2-en-1-ylamino)pyrrolidin-1-yl]indazole-7-carboxamide]	> 10 µM	< 0.1 µM
1 to 10 µM	0.1 to 1 µM	CCn1cc2c(N3CCC(NCC4(O)CC4)CC3)ccc(C(=O)Nc3cc(F)c4nc(C)cn4c3)c2n1 [Compound 576, 2-ethyl-N-{8-fluoro-2-methylimidazo[1,2-a]pyridin-6-yl}-4-(4-{[(1-hydroxycyclopropyl)methyl]amino}piperidin-1-yl) indazole-7-carboxamide]	> 10 µM	0.1 to 1 µM
0.1 to 1 µM	0.1 to 1 µM	CCn1cc2c(N3CCC(NCC(C)(C)O)CC3)ccc(C(=O)Nc3cc(F)c4nc(C)cn4c3)c2n1 [Compound 577, 2-ethyl-N-{8-fluoro-2-methylimidazo[1,2-a]pyridin-6-yl}-4-{4-[(2-hydroxy-2-methylpropyl)amino]piperidin-1-yl}indazole-7-carboxamide]	0.1 to 1 µM	0.1 to 1 µM
> 10 µM	> 10 µM	Cc1cn2cc(NC(=O)c3ccc(N4CC[C@@H](Nc5ccccc5)C4)c4cn(C)nc34)cc(F)c2n1 [Compound 579, N-{8-fluoro-2-methylimidazo[1,2-a]pyridin-6-yl}-2-methyl-4-[(3R)-3-(phenylamino)pyrrolidin-1-yl] indazole-7-carboxamide]	> 10 µM	> 10 µM
> 10 µM	0.1 to 1 µM	CCn1cc2c(N3CCC(NC4C5CNCC54)CC3)ccc(C(=O)Nc3cc(F)c4nc(C)cn4c3)c2n1 (stereo not drawn) [Compound 580, 4-(4-{3-azabicyclo[3.1.0]hexan-6-ylamino}piperidin-1-yl)-2-ethyl-N-{8-fluoro-2-methylimidazo[1,2-a]pyridin-6-yl}indazole-7-carboxamide; bis(trifluoroacetic acid)]	> 10 µM	1 to 10 µM
1 to 10 µM	0.1 to 1 µM	CCn1cc2c(N3CCC(NC4C5COCC54)CC3)ccc(C(=O)Nc3cc(F)c4nc(C)cn4c3)c2n1 (stereo not drawn) [Compound 581, 2-ethyl-N-{8-fluoro-2-methylimidazo[1,2-a]pyridin-6-yl}-4-(4-{3-oxabicyclo[3.1.0]hexan-6-ylamino}piperidin-1-yl) indazole-7-carboxamide]	1 to 10 µM	0.1 to 1 µM
0.1 to 1 µM	0.1 to 1 µM	CCn1cc2c(N3CCNCC3)ccc(C(=O)Nc3cc(F)c4nc(CO)oc4c3)c2n1 [Compound 582, 2-ethyl-N-[4-fluoro-2-(hydroxymethyl)-1,3-benzoxazol-6-yl]-4-(piperazin-1-yl) indazole-7-carboxamide]	0.1 to 1 µM	0.1 to 1 µM
1 to 10 µM	0.1 to 1 µM	CCn1cc2c(N3C[C@@H](F)[C@H](NC)C3)ccc(C(=O)Nc3cc(F)c4nc(C)cn4c3)c2n1 [Compound 584, 2-ethyl-N-{8-fluoro-2-methylimidazo[1,2-a]pyridin-6-yl}-4-[(3R,4R)-3-fluoro-4-(methylamino)pyrrolidin-1-yl]indazole-7-carboxamide]	1 to 10 µM	0.1 to 1 µM
